According to PubChem BioAssay (NCI):
Values joined by “and” are separate entries in the source; they are usually repeats but may differ in a detail not shown here. Identical values can stand only once.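 Step 1: Grow cells in 96-well plates. Step 2: Expose to compound for 48 hours at 5 concentrations. Step 3: Interpolate endpoints linearly; if unreached, use highest concentration. Definition used: TGI = concentration required for complete inhibition of growth.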 Where a SMILES comes first, the peptide text is derived from it. The star is where a group is joined. Boc = CC(C)(C)OC(=O)*

Legend:
Experiment in all cases: NCI tumour cell line growth inhibition, 48 h
SNB-19 CNS = system: SNB-19 CNS
LOX IMVI melanoma = system: LOX IMVI melanoma
HL-60(TB) leukemia = system: HL-60(TB) leukemia
DU-145 prostate = system: DU-145 prostate
786-0 renal = system: 786-0 renal
RPMI-8226 leukemia = system: RPMI-8226 leukemia
SK-MEL-28 melanoma = system: SK-MEL-28 melanoma
SK-MEL-2 melanoma = system: SK-MEL-2 melanoma
SN12C renal = system: SN12C renal
A549 NSCLC = system: A549 NSCLC

Compound	TGI (SNB-19 CNS)	TGI (LOX IMVI melanoma)	TGI (HL-60(TB) leukemia)	TGI (DU-145 prostate)	TGI (786-0 renal)	TGI (RPMI-8226 leukemia) [µM]	TGI (SK-MEL-28 melanoma)	TGI (SK-MEL-2 melanoma)	TGI (SN12C renal)	TGI (A549 NSCLC)
C1CCC2(CC1)O[C@@H]1[C@@H](O2)[C@@H](O[C@H]2O[C@@H]3COC4(CCCCC4)O[C@H]3[C@@H]3OC4(CCCCC4)O[C@@H]23)O[C@@H]2COC3(CCCCC3)O[C@@H]12	> 100 µM	> 100 µM	> 100 µM	> 100 µM	> 100 µM	> 100	> 100 µM	> 100 µM	> 100 µM	> 100 µM
Oc1ccc(-c2nc(-c3cccnc3)c(-c3ccc(Cl)cc3)[nH]2)cc1O	27.1 µM	30.1 µM	> 100 µM	90.8 µM	> 100 µM	> 100	36.2 µM	31.8 µM	31.3 µM	54.1 µM
Nc1nc(Cl)c(N)c(NCC2(CO)CC(OCc3ccccc3)C2)n1 (stereo not given)	> 100 µM	> 100 µM	> 100 µM	> 100 µM	> 100 µM	> 100	> 100 µM	> 100 µM	> 100 µM	> 100 µM
CCCCC(C#N)(OP1(=O)OC(c2ccccc2)C(C)N1C)c1ccccc1 (stereo not given)	36.4 µM	36.7 µM	36 µM	43.4 µM	31.8 µM	53.2	31.9 µM	34.2 µM	31.3 µM	44.3 µM
COC(=O)NCCc1[nH]nc2c1C(=O)C=C(N1CCOCC1)C2=O	> 100 µM	> 100 µM	> 100 µM	> 100 µM	> 100 µM	> 100	> 100 µM	> 100 µM	> 100 µM	> 100 µM
Cc1cnc2sn(-c3ccc(Oc4ccccc4)cc3)c(=O)c2c1	46 µM	81 µM	> 100 µM	37.8 µM	30.7 µM	> 100	33.3 µM	> 100 µM	43 µM	46 µM
COC(=O)C(Cc1c[nH]c2ccccc12)NC(=O)C(Cc1c[nH]c2ccccc12)NC(=O)C(Cc1c[nH]c2ccccc12)NC(=O)C(Cc1c[nH]c2ccccc12)NC(=O)C(Cc1c[nH]c2ccccc12)NC(=O)C(Cc1c[nH]c2ccccc12)NC(=O)OC(C)(C)C (stereo not given) (Boc-WWWWWW-OMe; configuration not given here)	> 100 µM	> 100 µM	> 100 µM	> 100 µM	> 100 µM	> 100	31.1 µM	> 100 µM	> 100 µM	> 100 µM
CC(=O)OC(/C=C/c1ccccc1)P1(=O)N(CC(C)(C)C)[C@@H]2CCCC[C@H]2N1CC(C)(C)C (stereo not given in full)	23.5 µM and 24.2 µM	24 µM and 24.5 µM	21.6 µM and 18.7 µM	23.7 µM and 23.5 µM	21.4 µM and 21.1 µM	12.1	34.4 µM and 28.5 µM	24.3 µM and 18.5 µM	22.6 µM and 21.6 µM	17.3 µM and 18.5 µM
COc1ccc2c(CCN)c(C(=O)O)[nH]c2c1	> 100 µM	> 100 µM	> 100 µM	> 100 µM	> 100 µM	> 100	> 100 µM	> 100 µM	> 100 µM	> 100 µM
COC(=O)[C@]1(c2cc3ccccc3n2S(=O)(=O)c2ccccc2)CC2CN(C(C)=O)C1CC2=O (stereo not given in full)	12.5 µM	3.8 µM	4.64 µM	11.7 µM	2.97 µM	4.26	11.7 µM	7.52 µM	8.11 µM	13.1 µM
CCCCC(=O)NS(=NC(=O)c1ccccc1)C(Cl)(Cl)Cl (stereo not given)	> 100 µM	> 100 µM	> 100 µM	> 100 µM	> 100 µM	> 100	> 100 µM	> 100 µM	> 100 µM	> 100 µM
COc1ccc2nc3ccc(OC)cc3c(SCCO)c2c1	> 100 µM	> 63 µM	19.9 µM	37.1 µM	> 60 µM	48.9	> 100 µM	> 84 µM	> 100 µM	> 100 µM
[N-]=[N+]=C1N=CN=C1c1ncn[nH]1	> 100 µM	40 µM	40.5 µM	> 100 µM	> 100 µM	38.8	> 100 µM	> 100 µM	93.9 µM	> 100 µM
CCCCCCCCOC1C(O)C(O)C(O)C(O)C12CO2 (stereo not given)	> 100 µM	> 100 µM	> 100 µM	> 100 µM	> 100 µM	> 100	> 100 µM	> 100 µM	> 100 µM	> 100 µM
COC(=O)CCC(=O)NC1=C(Nc2ccc(OC)cc2)C(=O)c2ccccc2C1=O	37.7 µM	16.1 µM	> 68 µM	26.9 µM	76.2 µM	75.2	31.4 µM	20.1 µM	27.3 µM	29.7 µM
CCSc1sc(=Nc2ccc(N=c3sc(C)c(SC)s3)cc2)sc1-c1ccc(C)cc1	> 100 µM	> 100 µM	> 100 µM	> 100 µM	> 100 µM	> 100	> 100 µM	> 100 µM	> 100 µM	> 100 µM
CCCN(CCCC(NC(C)=O)C(=O)NCc1ccccc1)C(=O)N(CCCl)N=O (stereo not given)	> 84.9 µM	31.5 µM	30.6 µM	> 100 µM	19.1 µM	69	35.1 µM	43.9 µM	> 76.1 µM	68.7 µM
O=S(=O)(O)c1cc(O)c2c(N=Cc3ccccc3O)cc(S(=O)(=O)O)cc2c1	> 100 µM	> 100 µM	> 100 µM	> 100 µM	> 100 µM	> 100	> 100 µM	> 100 µM	> 100 µM	> 100 µM
